Measured values published in PubChem BioAssay (NCI).
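Where inhibition never reached the appropriate level, the endpoint shown equals the highest concentration tested. Otherwise, values were interpolated linearly from a five-concentration, 48-hour dose response in 96-well plates. TGI: total growth inhibition.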

How the values were obtained:
Experiment in all cases: inhibition of tumour cell growth, NCI panel, 48 h
[1] = tested on: HOP-62 NSCLC
[2] = tested on: 786-0 renal
[3] = tested on: MALME-3M melanoma
[4] = tested on: NCI/ADR-RES ovarian
[5] = tested on: RPMI-8226 leukemia
[6] = tested on: MDA-MB-231 breast
[7] = tested on: OVCAR-3 ovarian
[8] = tested on: COLO 205 colon
[9] = tested on: MCF7 breast
[10] = tested on: SW-620 colon
[11] = tested on: M14 melanoma
[12] = tested on: SNB-19 CNS
[13] = tested on: IGROV1 ovarian
[14] = tested on: OVCAR-5 ovarian
[15] = tested on: MDA-N
[16] = tested on: HCT-15 colon
[17] = tested on: HCC-2998 colon
[18] = tested on: MDA-MB-435
[19] = tested on: U251 CNS
[20] = tested on: SF-295 CNS
[21] = tested on: OVCAR-4 ovarian
[22] = tested on: SF-268 CNS
[23] = tested on: HS 578T breast
[24] = tested on: NCI-H522 lung
[25] = tested on: TK-10 renal
[26] = tested on: SK-MEL-2 melanoma
[27] = tested on: SNB-75 CNS
[28] = tested on: RXF 393 renal
[29] = tested on: KM12 colon
[30] = tested on: UO-31 renal
[31] = tested on: SN12C renal
[32] = tested on: LOX IMVI melanoma
[33] = tested on: UACC-62 melanoma
[34] = tested on: T-47D breast
[35] = tested on: CAKI-1 renal
[36] = tested on: CCRF-CEM leukemia
[37] = tested on: SF-539 CNS
[38] = tested on: A549 NSCLC
[39] = tested on: HT29 colon
[40] = tested on: NCI-H23 lung
[41] = tested on: SK-MEL-5 melanoma
[42] = tested on: EKVX NSCLC
[43] = tested on: PC-3 prostate
[44] = tested on: OVCAR-8 ovarian
[45] = tested on: BT-549 breast
[46] = tested on: SK-MEL-28 melanoma
[47] = tested on: SK-OV-3 ovarian
[48] = tested on: DU-145 prostate
[49] = tested on: HCT-116 colon
[50] = tested on: MOLT-4 leukemia
[51] = tested on: NCI-H226 lung
[52] = tested on: K-562 leukemia
[53] = tested on: ACHN renal
[54] = tested on: SR leukemia
[55] = tested on: HOP-92 NSCLC
[56] = tested on: HL-60(TB) leukemia
[57] = tested on: NCI-H460 lung
[58] = tested on: UACC-257 melanoma

## O=C1NC(=S)N/C1=C\c1cccs1
[1]
  TGI: > 100 µM
[2]
  TGI: > 100 µM
[3]
  TGI: > 100 µM
[4]
  TGI: > 100 µM
[5]
  TGI: > 100 µM
[6]
  TGI: > 100 µM
[7]
  TGI: > 100 µM
[8]
  TGI: > 100 µM
[9]
  TGI: > 100 µM
[10]
  TGI: > 100 µM
[11]
  TGI: > 100 µM
[12]
  TGI: > 100 µM
[13]
  TGI: > 100 µM
[14]
  TGI: > 100 µM
[15]
  TGI: > 100 µM
[16]
  TGI: > 100 µM
[17]
  TGI: > 100 µM
[18]
  TGI: > 100 µM
[19]
  TGI: > 100 µM
[20]
  TGI: > 100 µM
[21]
  TGI: > 100 µM
[22]
  TGI: > 100 µM
[23]
  TGI: > 100 µM
[24]
  TGI: > 100 µM
[25]
  TGI: > 100 µM
[26]
  TGI: > 100 µM
[27]
  TGI: > 100 µM
[28]
  TGI: > 100 µM
[29]
  TGI: > 100 µM
[30]
  TGI: > 100 µM
[31]
  TGI: > 100 µM
[32]
  TGI: > 100 µM
[33]
  TGI: > 100 µM
[34]
  TGI: > 100 µM
[35]
  TGI: > 100 µM
[36]
  TGI: > 100 µM
[37]
  TGI: > 100 µM
[38]
  TGI: > 100 µM
[39]
  TGI: > 100 µM
[40]
  TGI: > 100 µM
[41]
  TGI: > 100 µM
[42]
  TGI: > 100 µM
[43]
  TGI: > 100 µM
[44]
  TGI: > 100 µM
[45]
  TGI: > 100 µM
[46]
  TGI: > 100 µM
[47]
  TGI: > 100 µM
[48]
  TGI: > 100 µM
[49]
  TGI: > 100 µM
[50]
  TGI: > 100 µM
[51]
  TGI: > 100 µM
[52]
  TGI: > 100 µM

## CCOC(=O)CCC(NC(=O)c1ccc(Nc2nc3ccc(C(F)(F)F)cc3nc2-c2ccccc2)cc1)C(=O)OCC (stereo not drawn)
[1]
  TGI: > 100 µM
[2]
  TGI: > 100 µM
[3]
  TGI: 76.8 µM
[4]
  TGI: > 100 µM
[5]
  TGI: > 100 µM
[6]
  TGI: 58.9 µM
[7]
  TGI: 76 µM
[8]
  TGI: 29.7 µM
[9]
  TGI: > 100 µM
[10]
  TGI: > 100 µM
[11]
  TGI: 46.2 µM
[12]
  TGI: > 100 µM
[53]
  TGI: > 100 µM
[13]
  TGI: > 100 µM
[14]
  TGI: > 100 µM
[15]
  TGI: 75.4 µM
[16]
  TGI: > 100 µM
[17]
  TGI: > 85.9 µM
[18]
  TGI: > 100 µM
[19]
  TGI: > 100 µM
[54]
  TGI: > 100 µM
[20]
  TGI: > 100 µM
[21]
  TGI: > 100 µM
[22]
  TGI: > 100 µM
[23]
  TGI: 85.1 µM
[24]
  TGI: 55.2 µM
[25]
  TGI: > 100 µM
[26]
  TGI: 49.7 µM
[27]
  TGI: > 100 µM
[28]
  TGI: > 100 µM
[55]
  TGI: > 100 µM
[29]
  TGI: > 100 µM
[30]
  TGI: > 87.2 µM
[31]
  TGI: > 100 µM
[32]
  TGI: > 64.2 µM
[33]
  TGI: 44.2 µM
[34]
  TGI: 60.4 µM
[35]
  TGI: > 100 µM
[36]
  TGI: > 100 µM
[37]
  TGI: > 100 µM
[38]
  TGI: > 100 µM
[39]
  TGI: > 100 µM
[40]
  TGI: > 100 µM
[41]
  TGI: > 100 µM
[56]
  TGI: > 100 µM
[42]
  TGI: > 100 µM
[44]
  TGI: > 100 µM
[57]
  TGI: > 100 µM
[45]
  TGI: > 100 µM
[46]
  TGI: > 100 µM
[58]
  TGI: 35.3 µM
[48]
  TGI: > 100 µM
[49]
  TGI: > 100 µM
[50]
  TGI: 77.8 µM
[51]
  TGI: > 100 µM
[52]
  TGI: > 100 µM
